These results are taken from US9833497B2, “Human originated EGF domain proteins and use of the same” (CHENGDU SOURCEBIO LIMITED-LIABILITY COMPANY, priority 2013, dated 2017).

What all share (format): cell-based
One assay has as its system Proteus vulgaris. In words: MIC against Gram-negative bacteria: Proteus vulgaris. The note with it: 5×10^5 CFU/mL; for MIC against P. vulgaris: Proteus vulgaris. The method in brief: (§1)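 Two-fold serial dilutions of each purified human EGF domain protein, three replicate wells per level, were combined with bacteria at a final 5×10^5 CFU/mL in LB. Cultures were shaken at 175 rpm, 37° C. The MIC was taken as the minimum concentration preventing growth.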

The subject of the next assay is Moraxella catarrhalis. In words: MIC against Gram-negative bacteria: Moraxella catarrhalis. The note with it: 5×10^5 CFU/mL; for MIC against M. catarrhalis: Moraxella catarrhalis. The method in brief:
as §1

Another assay concerns E. coli DH5α. Briefly: Antibacterial activity: MIC and growth curve against E. coli DH5α in 96-well plate. The note with it: minimal inhibitory concentration against E. coli DH5α; 96-well plate, 5×10^5 CFU/mL, 37° C., judged after 8 h. The method in brief:
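Log-phase bacteria (OD600 ~0.5) resuspended in LB at 5×10^5 CFU/mL, exposed to recombinant protein at 50, 25, 12.5 μg/mL final in triplicate, 37 °C shaking at 175 rpm. OD600 read every 30 min; MIC is lowest concentration showing no growth.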

The next assay relates to E. coli BL21. In words: MIC against Gram-negative bacteria: E. coli BL21. The note with it: 5×10^5 CFU/mL. The gist of the method:
as §1

For another assay, the system named is Enterobacter cloacae. Briefly: MIC against Gram-negative bacteria: Enterobacter cloacae. The note with it: 5×10^5 CFU/mL; for MIC against E. cloacae: Enterobacter cloacae. The gist of the method: as §1
The next assay has as its system Pseudomonas aeruginosa. Briefly: MIC against Gram-negative bacteria: Pseudomonas aeruginosa. The note with it: 5×10^5 CFU/mL; for MIC against P. aeruginosa: Pseudomonas aeruginosa. The gist of the method:
as §1

For the next assay, the system named is Citrobacter diversus. Briefly: MIC against Gram-negative bacteria: Citrobacter diversus. The note with it: 5×10^5 CFU/mL; for MIC against C. diversus: Citrobacter diversus. The method in brief:
as §1

The test system of a further assay is Proteus mirabilis. In words: MIC against Gram-negative bacteria: Proteus mirabilis. The note with it: 5×10^5 CFU/mL; for MIC against P. mirabilis: Proteus mirabilis. The method in brief: as §1
In the next assay the test system is Klebsiella pneumonia. Briefly: MIC against Gram-negative bacteria: Klebsiella pneumonia. The note with it: 5×10^5 CFU/mL; for MIC against K. pneumonia: Klebsiella pneumonia. The gist of the method: as §1
In another assay the test system is Aeromonas hydrophila. In words: MIC against Gram-negative bacteria: Aeromonas hydrophila. The note with it: 5×10^5 CFU/mL; for MIC against A. hydrophila: Aeromonas hydrophila. The method in brief:
as §1

The test system of the next assay is Serratia marcescens. Briefly: MIC against Gram-negative bacteria: Serratia marcescens. The note with it: 5×10^5 CFU/mL; for MIC against S. marcescens: Serratia marcescens. The gist of the method: as §1

Broadly, the MIC is the lowest concentration that inhibits growth of the organism. Lower therefore signals inhibition by little substance. Regarding “PRT1413 (PTNQCIDVACSNHGTCITGTCICNPGYKGESCE; listed as Homo sapiens)”, the “MIC against P. vulgaris” value against Proteus vulgaris (10 h cultivation at 37° C.) is 25 µg/mL. In addition, the “MIC against M. catarrhalis” value against Moraxella catarrhalis (10 h cultivation at 37° C.) came to 12.5 µg/mL. In the assay on E. coli DH5α, this substance had an MIC of 12.5 µg/mL. In the assay with E. coli BL21 (10 h cultivation at 37° C.), the “MIC against E. coli BL21” value was found to be 25 µg/mL. In addition, the “MIC against E. cloacae” value against Enterobacter cloacae (10 h cultivation at 37° C.) came out at 12.5 µg/mL. Besides, in the assay on Pseudomonas aeruginosa (10 h cultivation at 37° C.), the “MIC against P. aeruginosa” value is 50 µg/mL. Besides, the “MIC against C. diversus” value with Citrobacter diversus (10 h cultivation at 37° C.) stood at 50 µg/mL. Further, in the assay with Proteus mirabilis (10 h cultivation at 37° C.), the “MIC against P. mirabilis” value came out at 50 µg/mL. Further, the “MIC against K. pneumonia” value against Klebsiella pneumonia (10 h cultivation at 37° C.) was 25 µg/mL. Moreover, in the assay with Aeromonas hydrophila (10 h cultivation at 37° C.), the “MIC against A. hydrophila” value was 25 µg/mL. The “MIC against S. marcescens” value against Serratia marcescens (10 h cultivation at 37° C.) is 12.5 µg/mL.

With “PRT884 (HSDPCENNPCLHGGTCNANGTMYGCSCDQGFAGENCE; listed as Homo sapiens)”, the “MIC (μg/mL) P. vulgaris” value in the assay with Proteus vulgaris (10 h cultivation at 37° C.) turned out to be 50 µg/mL. Moreover, in the assay with Moraxella catarrhalis (10 h cultivation at 37° C.), the “MIC (μg/mL) M. catarrhalis” value came to 12.5 µg/mL. The same substance came in with an MIC against E. coli DH5α of 12.5 µg/mL. In addition, the “MIC (μg/mL) E. coli BL21” value against E. coli BL21 (10 h cultivation at 37° C.) was found to be 12.5 µg/mL. Further, the “MIC (μg/mL) E. cloacae” value in the assay on Enterobacter cloacae (10 h cultivation at 37° C.) came out at 12.5 µg/mL. Besides, the “MIC (μg/mL) P. aeruginosa” value with Pseudomonas aeruginosa (10 h cultivation at 37° C.) was determined as 12.5 µg/mL. Moreover, the “MIC (μg/mL) C. diversus” value with Citrobacter diversus (10 h cultivation at 37° C.) is 12.5 µg/mL. Further, in the assay on Proteus mirabilis (10 h cultivation at 37° C.), the “MIC (μg/mL) P. mirabilis” value amounted to 25 µg/mL. The “MIC (μg/mL) K. pneumonia” value against Klebsiella pneumonia (10 h cultivation at 37° C.) is 12.5 µg/mL. Also, the “MIC (μg/mL) A. hydrophila” value in the assay with Aeromonas hydrophila (10 h cultivation at 37° C.) amounted to 12.5 µg/mL. In addition, the “MIC (μg/mL) S. marcescens” value in the assay on Serratia marcescens (10 h cultivation at 37° C.) came out at 25 µg/mL.

As to “PRT679 (DLNECAKPHLCGDGGFCINFPGHYKCNCYPGYRLKASRPPVCE; listed as Homo sapiens)”, the “MIC P. vulgaris” value in the assay on Proteus vulgaris (96-well plate, 37° C., 10 h) was determined as 50 µg/mL. For the same substance, the “MIC M. catarrhalis” value against Moraxella catarrhalis (96-well plate, 37° C., 10 h) came to 12.5 µg/mL. Besides, the MIC in the assay on E. coli DH5α worked out at 12.5 µg/mL. In addition, the “MIC E. coli BL21” value with E. coli BL21 (96-well plate, 37° C., 10 h) was found to be 50 µg/mL. Also, the “MIC E. cloacae” value with Enterobacter cloacae (96-well plate, 37° C., 10 h) amounted to 12.5 µg/mL. Further, the “MIC P. aeruginosa” value against Pseudomonas aeruginosa (96-well plate, 37° C., 10 h) was found to be 25 µg/mL. In addition, the “MIC C. diversus” value with Citrobacter diversus (96-well plate, 37° C., 10 h) stood at 50 µg/mL. Moreover, in the assay with Proteus mirabilis (96-well plate, 37° C., 10 h), the “MIC P. mirabilis” value is 25 µg/mL. Also, in the assay with Klebsiella pneumonia (96-well plate, 37° C., 10 h), the “MIC K. pneumonia” value stood at 25 µg/mL. Also, the “MIC A. hydrophila” value with Aeromonas hydrophila (96-well plate, 37° C., 10 h) is 25 µg/mL. Further, the “MIC S. marcescens” value against Serratia marcescens (96-well plate, 37° C., 10 h) came out at 25 µg/mL.

Consider “PRT1339 (EINNCLLPSAGGCHDNASCLYVGPGQNECECKKGFRGNGIDCE; listed as Homo sapiens)”, for which, in the assay on Proteus vulgaris (96-well plate, 37° C., 10 h), the “MIC against P. vulgaris” value amounted to 50 µg/mL. Further, the “MIC against M. catarrhalis” value in the assay with Moraxella catarrhalis (96-well plate, 37° C., 10 h) came to 12.5 µg/mL. For the same substance, the MIC against E. coli DH5α is 25 µg/mL. For the same substance, the “MIC against E. coli BL21” value against E. coli BL21 (96-well plate, 37° C., 10 h) stood at 12.5 µg/mL. The “MIC against E. cloacae” value with Enterobacter cloacae (96-well plate, 37° C., 10 h) is 12.5 µg/mL. Moreover, in the assay with Pseudomonas aeruginosa (96-well plate, 37° C., 10 h), the “MIC against P. aeruginosa” value turned out to be 12.5 µg/mL. The “MIC against C. diversus” value in the assay with Citrobacter diversus (96-well plate, 37° C., 10 h) worked out at 25 µg/mL. Further, the “MIC against P. mirabilis” value against Proteus mirabilis (96-well plate, 37° C., 10 h) was 25 µg/mL. The “MIC against K. pneumonia” value in the assay on Klebsiella pneumonia (96-well plate, 37° C., 10 h) is 25 µg/mL. In addition, the “MIC against A. hydrophila” value in the assay with Aeromonas hydrophila (96-well plate, 37° C., 10 h) is 50 µg/mL. The “MIC against S. marcescens” value in the assay on Serratia marcescens (96-well plate, 37° C., 10 h) was found to be 25 µg/mL.

On to “PRT246 (DINECTMDSHTCSHHANCFNTQGSFKCKCKQGYKGNGLRCS; listed as Homo sapiens)”, for which, in the assay with Proteus vulgaris (10 h cultivation at 37° C.), the “MIC (μg/mL) P. vulgaris” value came to 25 µg/mL. In addition, the “MIC (μg/mL) M. catarrhalis” value in the assay with Moraxella catarrhalis (10 h cultivation at 37° C.) was 25 µg/mL. Also, the MIC against E. coli DH5α came out at 12.5 µg/mL. Also, in the assay on E. coli BL21 (10 h cultivation at 37° C.), the “MIC (μg/mL) E. coli BL21” value was determined as 12.5 µg/mL. Also, in the assay on Enterobacter cloacae (10 h cultivation at 37° C.), the “MIC (μg/mL) E. cloacae” value is 12.5 µg/mL. Besides, the “MIC (μg/mL) P. aeruginosa” value against Pseudomonas aeruginosa (10 h cultivation at 37° C.) is 12.5 µg/mL. The “MIC (μg/mL) C. diversus” value in the assay on Citrobacter diversus (10 h cultivation at 37° C.) was determined as 12.5 µg/mL. In addition, the “MIC (μg/mL) P. mirabilis” value with Proteus mirabilis (10 h cultivation at 37° C.) was 12.5 µg/mL. Moreover, in the assay with Klebsiella pneumonia (10 h cultivation at 37° C.), the “MIC (μg/mL) K. pneumonia” value came to 12.5 µg/mL. In addition, the “MIC (μg/mL) A. hydrophila” value against Aeromonas hydrophila (10 h cultivation at 37° C.) was 12.5 µg/mL. Also, the “MIC (μg/mL) S. marcescens” value against Serratia marcescens (10 h cultivation at 37° C.) was determined as 12.5 µg/mL.
